# Laboratory results: patent publication US12180473B2, “Chimeric RNA-driven genomic rearrangement in mammalian cells” (priority 2018, dated 2024)
# Assays:
# [1] = test system: TMPRSS2-ERG fusion
# [2] = test system: TMPRSS2-ERG fusion; remark: listed apart in the source
# [3] = test system: TMPRSS2 mRNA; settings: LNCaP cells
# [4] = test system: AZI1 RNA; settings: LNCaP cells
# [5] = test system: ERG mRNA; assay: RT-PCR of endogenous ERG mRNA in LNCaP cells
compound,measurement,setting,value
"C[C@]12CCC(=O)C[C@@H]1CC[C@@H]1[C@@H]2CC[C@]2(C)[C@@H](O)CC[C@@H]12 [DHT, 5α-Androstan-17β-ol-3-one]",DHT concentration at which fusion induction is detectable,[1],~0.6 µM
same,DHT concentration at which fusion induction reaches its maximum,[1],1.5 µM
same,TMPRSS2-ERG fusion transcript in PNT1A cells with DHT alone,[2],no detectable fusion transcripts
same,TMPRSS2 mRNA expression,[3],upregulated
same,endogenous AZI1 RNA expression,[4],upregulated
same,endogenous ERG mRNA (three-rounds of nested RT-PCR),[5]; presence or absence of DHT or antisense-5,not detected
same,endogenous ERG mRNA (RT-PCR),"[5]; wide range of DHT, presence or absence of antisense-5",not detected
